In patent US5208259A, “Diaryl ether hetrocycles” (Imperial Chemical Industries, priority 1989, dated 1993):

Legend:
5-LO [1] = assay: Test b) heparinised human blood challenged with A23187, LTB4 radioimmunoassay; type: cell-based; conditions: A23187, against LTB4
Experimental: b) An in vitro assay system involving incubating a test compound with heparinised human blood, prior to challenge with the calcium ionophore A23187 and then indirectly measuring the inhibitory effects on 5-L0 by assaying the amount of LTB4 using the specific radioimmunoassay described by Carey and Forder (F. Carey and R. A. Forder, Brit. J. Pharmacol. 1985, 84, 34P) which involves the use of a protein-LTB4 conjugate produced using the procedure of Young et alia (Prostaglandins, 1983, 26(4), 605-613). The effects of a test compound on the enzyme cyclooxygenase (which is involved in the alternative metabolic pathway for arachidonic acid and gives rise to prostaglandins, thromboxanes and related metabolites) may be measured at the same time using the specific radioimmunoassay for thromboxane B2 (TxB2) described by Carey and Forder (see above). This test provides an indication of the effects of a test compound against 5-L0 and also cylooxygenase in the presence of blood cells and proteins. It permits the selectivity of the inhibitory effect on 5-L0 or cyclooxygenase to be assessed.

5-LO [2] = assay: Test c) ex vivo assay: oral administration, blood collection, A23187 challenge, radioimmunoassay of LTB4; type: in vivo
Experimental: c) An ex vivo assay system, which is a variation of test b) above, involving administration of a test compound (usually orally as the suspension produced when a solution of the test compound in dimethylsulphoxide is added to carboxymethylcellulose), blood collection, heparinisation, challenge with A23187 and radioimmunoassay of LTB4 and TxB2. This test provides an indication of the bioavailability of a test compound as an inhibitor of 5-L0 or cyclooxygenase.

5-LO [3] = assay: Test g) zymosan-induced liberation of LTB4 within air pouch of male rats; type: in vivo; conditions: 3 h; Test g), rat air pouch, oral
Experimental: g) An in vivo system involving measuring the effects of a test compound administered orally against the liberation of LTB4 induced by zymosan within an air pouch generated within the subcutaneous tissue of the back of male rats. The rats are anaesthetised and air pouches are formed by the injection of sterile air (20 ml). A further injection of air (10 ml) is similarly given after 3 days). At 6 days after the initial air injection the test compound is administered (usually orally as the suspension produced when a solution of the test compound in dimethylsulphoxide is added to hydroxypropylmethylcellulose), followed by the intrapouch injection of zymosan (1 ml of a 1% suspension in physiological saline). After 3 hours the rats are killed, the air pouches are lavaged with physiological saline, and the specific radioimmunoassay described above is used to assay LTB4 in the washings. This test provides an indication of inhibitory effects against 5-L0 in an inflammatory milieu.

| IC50 (5-LO [1]) | Compound | ED50 (5-LO [2]) | ED50 (5-LO [3]) |
| --- | --- | --- | --- |
| < 150 nM | COC1(c2cccc(Sc3ccc4ccccc4c3)c2)CCOCC1 [4-methoxy-4-[3-(naphth-2-ylthio)phenyl]tetrahydropyran] | 3 mg/kg | < 10 mg/kg |
| < 150 nM | CO[C@]1(c2cc(F)cc(Sc3ccc(C(C)(C)C)cc3)c2)CCO[C@@H](C)C1 [(2S,4R)-4-[5-fluoro-3-(4-tert-butylphenylthio)phenyl]-4-methoxy-2-methyltetrahydropyran] | 2 mg/kg | 0.75 mg/kg |
